Measurements reported in PubChem BioAssay (NCI).
Values joined by “and” are separate entries in the source; they are usually repeats but may differ in a detail not shown here. Equal entries are not always repeated.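 Cells were grown in 96-well plates and exposed to each compound for 48 hours at five concentrations; endpoints were interpolated linearly between bracketing concentrations, or set to the highest concentration if not reached. GI50 = concentration required for 50% inhibition of growth. At the TGI there is no net growth.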

Tests used:
Test in all cases: NCI anticancer screen, dose series, 48 h
T-47D breast = test system: T-47D breast
HCC-2998 colon = test system: HCC-2998 colon
MCF7 breast = test system: MCF7 breast
SK-MEL-5 melanoma = test system: SK-MEL-5 melanoma
U251 CNS = test system: U251 CNS
SF-539 CNS = test system: SF-539 CNS
NCI/ADR-RES ovarian = test system: NCI/ADR-RES ovarian
RXF 393 renal = test system: RXF 393 renal
ACHN renal = test system: ACHN renal
M14 melanoma = test system: M14 melanoma
SF-268 CNS = test system: SF-268 CNS
CAKI-1 renal = test system: CAKI-1 renal
HS 578T breast = test system: HS 578T breast
OVCAR-8 ovarian = test system: OVCAR-8 ovarian
PC-3 prostate = test system: PC-3 prostate
SF-295 CNS = test system: SF-295 CNS
786-0 renal = test system: 786-0 renal
MDA-MB-435 = test system: MDA-MB-435
MDA-MB-231 breast = test system: MDA-MB-231 breast
MOLT-4 leukemia = test system: MOLT-4 leukemia
TK-10 renal = test system: TK-10 renal
HL-60(TB) leukemia = test system: HL-60(TB) leukemia
RPMI-8226 leukemia = test system: RPMI-8226 leukemia
NCI-H23 lung = test system: NCI-H23 lung
HOP-62 NSCLC = test system: HOP-62 NSCLC
HOP-92 NSCLC = test system: HOP-92 NSCLC
SK-MEL-2 melanoma = test system: SK-MEL-2 melanoma
UACC-62 melanoma = test system: UACC-62 melanoma
NCI-H460 lung = test system: NCI-H460 lung

`COc1cc2c(c(OC)n1)[C@]1(O)[C@H](O)[C@H](CN(C)C)[C@@H](c3ccccc3)[C@]1(c1ccc(C#N)cc1)O2` was tested, and the GI50 (T-47D breast) was under 10 nM, the TGI (T-47D breast) was 3.81 µM and 2.33 µM and the GI50 (HCC-2998 colon) was under 10 nM. For the same compound, the TGI (HCC-2998 colon) was 564 nM and 810 nM, the GI50 (MCF7 breast) was under 10 nM and the TGI (MCF7 breast) was 721 nM and 3090 nM. The GI50 (SK-MEL-5 melanoma) was 20.6 nM and 19.6 nM, the TGI (SK-MEL-5 melanoma) was 67.6 nM and 556 nM and the GI50 (U251 CNS) was 20 nM and < 11.1 nM. For the same compound, the TGI (U251 CNS) was 2.39 µM and 7.95 µM, the GI50 (SF-539 CNS) was 14.2 nM and < 11.6 nM and the TGI (SF-539 CNS) was 96.3 nM and 122 nM. The GI50 (NCI/ADR-RES ovarian) was 54.6 nM and 71 nM, the TGI (NCI/ADR-RES ovarian) was 3.89 µM and 2.93 µM and the GI50 (RXF 393 renal) was 35.9 nM and 19.5 nM. The TGI (RXF 393 renal) was 502 nM and 103 nM, the GI50 (ACHN renal) was < 11.6 nM and 11.7 nM and the TGI (ACHN renal) was 148 nM and 558 nM. The GI50 (M14 melanoma) was 14.7 nM and 10.2 nM, the TGI (M14 melanoma) was 193 nM and 114 nM and the GI50 (SF-268 CNS) was 24.9 nM and 14.8 nM. The TGI (SF-268 CNS) was 2020 nM and 1850 nM, the GI50 (CAKI-1 renal) was 27.6 nM and 17.8 nM and the TGI (CAKI-1 renal) was 1.68 µM and 4.38 µM. For the same compound, the GI50 (HS 578T breast) was 40.2 nM and 36.7 nM, the TGI (HS 578T breast) was 1970 nM and 1160 nM and the GI50 (OVCAR-8 ovarian) was 29.2 nM and 31.6 nM. For the same compound, the TGI (OVCAR-8 ovarian) was 10.1 µM and 11.5 µM, the GI50 (PC-3 prostate) was 22.3 nM and < 11.6 nM and the TGI (PC-3 prostate) was 10.7 µM and 2.39 µM. For the same compound, the GI50 (SF-295 CNS) was 21.2 nM and 23.1 nM, the TGI (SF-295 CNS) was 811 nM and 1840 nM and the GI50 (786-0 renal) was 44.3 nM and 31.3 nM. For the same compound, the TGI (786-0 renal) was 7.37 µM and 4.06 µM, the GI50 (MDA-MB-435) was 16.3 nM and 14.3 nM and the TGI (MDA-MB-435) was 1.06 µM and 8.13 µM. The GI50 (MDA-MB-231 breast) was 33.6 nM and 24.2 nM, the TGI (MDA-MB-231 breast) was 1720 nM and 1480 nM and the GI50 (MOLT-4 leukemia) was under 10 nM. For the same compound, the GI50 (TK-10 renal) was 54.3 nM and 67.2 nM, the TGI (TK-10 renal) was 2.9 µM and 6.22 µM and the GI50 (HL-60(TB) leukemia) was under 10 nM. The TGI (HL-60(TB) leukemia) was 921 nM and 213 nM, the GI50 (RPMI-8226 leukemia) was 15.1 nM and < 10 nM and the TGI (RPMI-8226 leukemia) was 299 nM and 150 nM. The GI50 (NCI-H23 lung) was 18.2 nM and 11.1 nM, the TGI (NCI-H23 lung) was 1760 nM and 1030 nM and the GI50 (HOP-62 NSCLC) was < 15.1 nM and 10.2 nM. For the same compound, the TGI (HOP-62 NSCLC) was 3520 nM and 565 nM, the GI50 (HOP-92 NSCLC) was 52.1 nM and 34.6 nM and the TGI (HOP-92 NSCLC) was 4300 nM and 991 nM. For the same compound, the GI50 (SK-MEL-2 melanoma) was 31.9 nM and 34 nM, the TGI (SK-MEL-2 melanoma) was 318 nM and 369 nM and the GI50 (UACC-62 melanoma) was 35.9 nM and 35.8 nM. The TGI (UACC-62 melanoma) was 2.63 µM and 4.34 µM, the GI50 (NCI-H460 lung) was under 10 nM and the TGI (NCI-H460 lung) was 3.48 µM and 6.88 µM.
